In brackets after ≈: the same amount, converted by molar mass. Where two headings read alike, the source gives them in different places.
What was measured:
Type in all cases: cell-based
[1] = tested on: 100 A. baumannii strains (50 MDR, 50 non-MDR); assay: MIC broth microdilution at IHMA Europe, panel of 100 strains; conditions: for MIC / MIC50 / MIC90: Acinetobacter baumannii; for MIC50: read-out: MIC 50; for MIC90: read-out: MIC 90
E. coli ATCC 35218 = assay: IHMA QC MIC; conditions: Escherichia coli, ATCC35218; read-out: MIC (QC, repeated tests)
Protocol: The panel of Hungarian clinical isolates and controls measured following the same method as detailed above, and albeit measurements were carried out in 384-well microtiter plates (Corning Inc.).

E. coli ATCC 25922 = assay: IHMA QC MIC; conditions: Escherichia coli, ATCC25922; read-out: MIC (QC, repeated tests)

## C[C@@H](O)[C@H]1C(=O)N2C(C(=O)O)=C(S[C@@H]3CN[C@H](C(=O)N(C)C)C3)[C@H](C)[C@H]12 [Meropenem, meropenem]
[1]; A. baumannii IHMA 2156709, Turkey 2020, MDR, read-out: MIC
  MIC: > 16 µg/mL
[1]; A. baumannii IHMA 2157614, Australia 2020, Non-MDR, read-out: MIC
  MIC: 0.25 µg/mL (≈ 0.652 µM)
[1]; A. baumannii IHMA 2177232, Lithuania 2020, MDR, read-out: MIC
  MIC: > 16 µg/mL
[1]; A. baumannii IHMA 2177489, Lithuania 2020, MDR, read-out: MIC
  MIC: > 16 µg/mL
[1]; A. baumannii IHMA 2178574, Ukraine 2020, Non-MDR, read-out: MIC
  MIC: ≤ 0.06 µg/mL
[1]; A. baumannii IHMA 2180134, Malaysia 2020, Non-MDR, read-out: MIC
  MIC: 0.25 µg/mL (≈ 0.652 µM)
[1]; A. baumannii IHMA 2180142, Malaysia 2020, MDR, read-out: MIC
  MIC: > 16 µg/mL
[1]; A. baumannii IHMA 2181370, Morocco 2020, MDR, read-out: MIC
  MIC: > 16 µg/mL
[1]; A. baumannii IHMA 2183729, Argentina 2020, MDR, read-out: MIC
  MIC: > 16 µg/mL
[1]; A. baumannii IHMA 2183849, Argentina 2020, Non-MDR, read-out: MIC
  MIC: 0.12 µg/mL (≈ 0.313 µM)
[1]; A. baumannii IHMA 2184382, Japan 2020, Non-MDR, read-out: MIC
  MIC: 0.12 µg/mL (≈ 0.313 µM)
[1]; A. baumannii IHMA 2193375, Venezuela 2020, MDR, read-out: MIC
  MIC: > 16 µg/mL
[1]; A. baumannii IHMA 2193485, Venezuela 2020, Non-MDR, read-out: MIC
  MIC: 0.12 µg/mL (≈ 0.313 µM)
[1]; A. baumannii IHMA 2193607, Venezuela 2020, MDR, read-out: MIC
  MIC: > 16 µg/mL
[1]; A. baumannii IHMA 2195460, Italy 2020, MDR, read-out: MIC
  MIC: > 16 µg/mL
[1]; A. baumannii IHMA 2196914, South Africa 2020, MDR, read-out: MIC
  MIC: > 16 µg/mL
[1]; A. baumannii IHMA 2196959, South Africa 2020, MDR, read-out: MIC
  MIC: > 16 µg/mL
[1]; A. baumannii IHMA 2203763, Spain 2020, MDR, read-out: MIC
  MIC: > 16 µg/mL
[1]; A. baumannii IHMA 2205144, Korea, South 2020, MDR, read-out: MIC
  MIC: 16 µg/mL (≈ 41.7 µM)
[1]; A. baumannii IHMA 2206459, Taiwan 2020, MDR, read-out: MIC
  MIC: > 16 µg/mL
[1]; A. baumannii IHMA 2206507, Taiwan 2020, Non-MDR, read-out: MIC
  MIC: 0.12 µg/mL (≈ 0.313 µM)
[1]; A. baumannii IHMA 2212575, Hungary 2020, Non-MDR, read-out: MIC
  MIC: 0.5 µg/mL (≈ 1.3 µM)
[1]; A. baumannii IHMA 2215307, Hong Kong 2020, Non-MDR, read-out: MIC
  MIC: 0.25 µg/mL (≈ 0.652 µM)
[1]; A. baumannii IHMA 2216586, Taiwan 2020, MDR, read-out: MIC
  MIC: > 16 µg/mL
[1]; A. baumannii IHMA 2223200, Colombia 2020, Non-MDR, read-out: MIC
  MIC: 0.12 µg/mL (≈ 0.313 µM)
[1]; A. baumannii IHMA 2224017, Panama 2020, MDR, read-out: MIC
  MIC: > 16 µg/mL
[1]; A. baumannii IHMA 2224303, Panama 2020, Non-MDR, read-out: MIC
  MIC: 1 µg/mL (≈ 2.61 µM)
[1]; A. baumannii IHMA 2231797, Greece 2020, MDR, read-out: MIC
  MIC: > 16 µg/mL
[1]; A. baumannii IHMA 2233099, Guatemala 2020, MDR, read-out: MIC
  MIC: > 16 µg/mL
[1]; A. baumannii IHMA 2233430, Kazakhstan 2020, MDR, read-out: MIC
  MIC: > 16 µg/mL
[1]; A. baumannii IHMA 2233548, Kazakhstan 2020, Non-MDR, read-out: MIC
  MIC: 0.25 µg/mL (≈ 0.652 µM)
[1]; A. baumannii IHMA 2238964, Thailand 2020, MDR, read-out: MIC
  MIC: > 16 µg/mL
[1]; A. baumannii IHMA 2239052, Thailand 2020, Non-MDR, read-out: MIC
  MIC: 0.12 µg/mL (≈ 0.313 µM)
[1]; A. baumannii IHMA 2261047, Belgium 2020, MDR, read-out: MIC
  MIC: > 16 µg/mL
[1]; A. baumannii IHMA 2261633, Canada 2020, Non-MDR, read-out: MIC
  MIC: 0.12 µg/mL (≈ 0.313 µM)
[1]; A. baumannii IHMA 2274234, South Africa 2020, MDR, read-out: MIC
  MIC: > 16 µg/mL
[1]; A. baumannii IHMA 2274364, South Africa 2020, MDR, read-out: MIC
  MIC: > 16 µg/mL
[1]; A. baumannii IHMA 2275237, Chile 2020, Non-MDR, read-out: MIC
  MIC: 0.25 µg/mL (≈ 0.652 µM)
[1]; A. baumannii IHMA 2275751, Jordan 2020, MDR, read-out: MIC
  MIC: > 16 µg/mL
[1]; A. baumannii IHMA 2316205, United States 2020, MDR, read-out: MIC
  MIC: > 16 µg/mL
[1]; MDR n = 50, read-out: MAX (maximum MIC; all strains inhibited)
  MIC: > 16 µg/mL
[1]; MDR n = 50
  MIC50: > 16 µg/mL
  MIC90: > 16 µg/mL
  Percentage I: 0%
  Percentage R: 100%
  Percentage S: 0%
[1]; MDR n = 50, read-out: MIN (minimum MIC)
  MIC: 16 µg/mL (≈ 41.7 µM)
[1]; all isolates n = 100, read-out: MAX (maximum MIC; all strains inhibited)
  MIC: > 16 µg/mL
[1]; all isolates n = 100
  MIC50: 1 µg/mL (≈ 2.61 µM)
  MIC90: > 16 µg/mL
[1]; all isolates n = 100, read-out: MIN (minimum MIC)
  MIC: ≤ 0.06 µg/mL
[1]; non-MDR n = 50, read-out: MAX (maximum MIC)
  MIC: 1 µg/mL (≈ 2.61 µM)
[1]; non-MDR n = 50
  MIC50: 0.25 µg/mL (≈ 0.652 µM)
  MIC90: 0.25 µg/mL (≈ 0.652 µM)
  Percentage I: 0%
  Percentage R: 0%
  Percentage S: 100%
[1]; non-MDR n = 50, read-out: MIN (minimum MIC)
  MIC: ≤ 0.06 µg/mL
[1]; all n = 100, CLSI breakpoints
  Percentage I: 0%
  Percentage R: 50%
  Percentage S: 50%
E. coli ATCC 35218
  MIC: ≤ 0.06 µg/mL
E. coli ATCC 25922
  MIC: ≤ 0.06 µg/mL
